{"source": "patent US9138512B2", "about": "“Implant with a surface layer having a topographic modification” (Biotronik AG, priority 2010, dated 2015)", "key": {"[1]": {"tested_on": "Human umbilical vein endothelial cells (HUVEC)", "assay": "Time to onset of spreading of HUVEC on substrates (time-lapse microscopy)", "format": "cell-based", "conditions": "HUVEC on gratings A-10, 50 μM blebbistatin, 10 μM Y27632 or 30 μM ML-7 added 30 minutes before", "protocol": "To generate confluent monolayers cells were seeded on COC substrates at high density (60-70×10^4 cell/cm^2) as reported by Lampugnani et al. and cultured for three days. To measure the time to onset of spreading, cells were detached from a subconfluent cell culture and resuspended in pre-warmed medium without antibiotics. The cells were then counted, diluted to reach a concentration of 5×10^4 cells in 1 ml of medium and then seeded onto the substrates.\n(§1) For contractility inhibition experiments during endothelial spreading, the cells were treated with DMSO (corresponding v/v), 30 μM ML-7, 10 μM Y27632 or 50 μM blebbistatin. The drugs were dissolved in DMSO (ML-7, blebbistatin) or in distilled water (Y27632) and added to the cells 30 minutes before starting the experiment.\nCell imaging was performed using an inverted Nikon-Ti wide-field microscope (Nikon, Jaw pan) equipped with an Orca R-2 CCD camera (Hamamatsu Photonics, Japan). After cell seeding, the topographic chip was placed under the microscope in an incubated chamber (Life Imaging Services, Switzerland), where temperature and CO2 concentration were maintained at 37° C. and 5%, respectively. Images were collected with a 20×, 0.45 NA long-distance objective (Plan Fluor, Nikon). Endothelial spreading on topographic substrates in topographic chips was recorded in parallel time-lapse movies for up to 6 different substrates (a flat control and five different gratings). Before starting the experiment, five non-overlapping positions were chosen within each substrate and stored in a position list. Immediately after cell seeding, the experiment was started to automatically acquire a differential interference contrast (DIC) image at each saved position with a time resolution of 1 minute for a total of one or two hours. Focal drift during the experiments was eliminated using the microscope's PFS autofocus system. At the end of the experiment, the resulting time-lapses were converted into a single 8 bit movie for each imaging field under analysis.\n(§2) Collected movies were loaded into ImageJ (National Institutes of Health, USA) and analyzed as follows: In a first step, movies acquired on patterned substrates were filtered by Fast Fourier Transform (FFT). This procedure eliminates the scattering generated by the gratings. The time to onset of spreading on the respective substrates was then measured for each cell detected within all parallel time-lapses acquired. […] A mean time to onset of spreading was calculated for each substrate under analysis by averaging the values measured for all individual cells. HUVEC alignment to the gratings was measured for all cells detected in the last frame of each recorded movie. […]"}, "[2]": {"tested_on": "Human umbilical vein endothelial cells (HUVEC)", "assay": "HUVEC alignment to the gratings (contact guidance)", "format": "cell-based", "conditions": "HUVEC on gratings A-10; 50 μM blebbistatin or 10 μM Y27632", "protocol": "as §1\nCell imaging was performed using an inverted Nikon-Ti wide-field microscope (Nikon, Jaw pan) equipped with an Orca R-2 CCD camera (Hamamatsu Photonics, Japan). […] Endothelial spreading on topographic substrates in topographic chips was recorded in parallel time-lapse movies for up to 6 different substrates (a flat control and five different gratings). […]\nas §2, with “This procedure eliminates the scattering generated by the gratings.” left out"}}, "data": [{"smiles": "Cc1ccc2c(c1)C(=O)C1(O)CCN(c3ccccc3)C1=N2", "note": "(stereo not drawn) [Blebbistatin]", "values": [{"measurement": "effect of inhibitor on time to onset of spreading / spreading", "setting": "[1]", "result": "no effect"}, {"measurement": "average alignment of inhibitor-treated cells to gratings", "setting": "[2]", "result": "26.5±6.5", "unit": "°"}]}, {"smiles": "O=S(=O)(c1cccc2c(I)cccc12)N1CCCNCC1", "note": "[ML-7]", "values": [{"measurement": "effect of inhibitor on time to onset of spreading / spreading", "setting": "[1]", "result": "No spreading could be measured"}, {"measurement": "effect of inhibitor on time to onset of spreading / spreading", "setting": "[1]; listed as ML7", "result": "completely ablates HUVEC spreading"}]}, {"smiles": "C[C@@H](N)[C@H]1CC[C@H](C(=O)Nc2ccncc2)CC1", "note": "[Y27632]", "values": [{"measurement": "effect of inhibitor on time to onset of spreading / spreading", "setting": "[1]", "result": "no effect"}, {"measurement": "average alignment of inhibitor-treated cells to gratings", "setting": "[2]", "result": "24.7±6.4", "unit": "°"}]}]}
